Measured values: PubChem BioAssay (NCI)
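Five concentrations, 48 hours, 96-well plates. GI50 marks 50% less growth. TGI: total growth inhibition.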

Key:
Assay in all cases: growth of human tumour cells (NCI), 48 h
[1] = tested on: 786-0 renal
[2] = tested on: A498 renal
[3] = tested on: A549 NSCLC
[4] = tested on: ACHN renal
[5] = tested on: BT-549 breast
[6] = tested on: CAKI-1 renal
[7] = tested on: CCRF-CEM leukemia
[8] = tested on: COLO 205 colon
[9] = tested on: DU-145 prostate
[10] = tested on: EKVX NSCLC
[11] = tested on: HCC-2998 colon
[12] = tested on: HCT-116 colon
[13] = tested on: HCT-15 colon
[14] = tested on: HL-60(TB) leukemia
[15] = tested on: HOP-62 NSCLC
[16] = tested on: HOP-92 NSCLC
[17] = tested on: HS 578T breast
[18] = tested on: HT29 colon
[19] = tested on: IGROV1 ovarian
[20] = tested on: K-562 leukemia
[21] = tested on: KM12 colon
[22] = tested on: LOX IMVI melanoma
[23] = tested on: M14 melanoma
[24] = tested on: MALME-3M melanoma
[25] = tested on: MCF7 breast
[26] = tested on: MDA-MB-231 breast
[27] = tested on: MDA-MB-435
[28] = tested on: MOLT-4 leukemia
[29] = tested on: NCI-H226 lung
[30] = tested on: NCI-H23 lung
[31] = tested on: NCI-H460 lung
[32] = tested on: NCI-H522 lung
[33] = tested on: NCI/ADR-RES ovarian
[34] = tested on: OVCAR-3 ovarian
[35] = tested on: OVCAR-4 ovarian
[36] = tested on: OVCAR-5 ovarian
[37] = tested on: OVCAR-8 ovarian
[38] = tested on: PC-3 prostate
[39] = tested on: RPMI-8226 leukemia
[40] = tested on: RXF 393 renal
[41] = tested on: SF-268 CNS
[42] = tested on: SF-295 CNS
[43] = tested on: SF-539 CNS
[44] = tested on: SK-MEL-2 melanoma
[45] = tested on: SK-MEL-28 melanoma
[46] = tested on: SK-MEL-5 melanoma
[47] = tested on: SK-OV-3 ovarian
[48] = tested on: SN12C renal
[49] = tested on: SNB-19 CNS
[50] = tested on: SNB-75 CNS
[51] = tested on: SR leukemia
[52] = tested on: SW-620 colon
[53] = tested on: T-47D breast
[54] = tested on: TK-10 renal
[55] = tested on: U251 CNS
[56] = tested on: UACC-257 melanoma
[57] = tested on: UACC-62 melanoma
[58] = tested on: UO-31 renal

O[N+]1=CC=CCC1=S.On1ccccc1=S.[Zn]
GI50 [1]: 0.931 µM | TGI [1]: 2.29 µM | GI50 [2]: 1.51 µM | TGI [2]: 3.06 µM | GI50 [3]: 0.811 µM | TGI [3]: 2.33 µM | GI50 [4]: 0.967 µM | TGI [4]: 2.31 µM | GI50 [5]: 1.52 µM | TGI [5]: 3.15 µM | GI50 [6]: 1.53 µM | TGI [6]: 3.13 µM | GI50 [7]: 0.437 µM | TGI [7]: 2.75 µM | GI50 [8]: 0.375 µM | TGI [8]: 0.951 µM | GI50 [9]: 0.732 µM | TGI [9]: 1.86 µM | GI50 [10]: 1.36 µM | TGI [10]: 3 µM | GI50 [11]: 0.896 µM | TGI [11]: 2.37 µM | GI50 [12]: 0.274 µM | TGI [12]: 0.69 µM | GI50 [13]: 1.03 µM | TGI [13]: 3.02 µM | GI50 [14]: 2.58 µM | TGI [14]: 6.5 µM | GI50 [15]: 1.21 µM | TGI [15]: 2.72 µM | GI50 [16]: 1.47 µM | TGI [16]: 3.24 µM | GI50 [17]: 2.15 µM | TGI [17]: > 30.7 µM | GI50 [18]: 0.3 µM | TGI [18]: 0.942 µM | GI50 [19]: 0.862 µM | TGI [19]: 2.72 µM | GI50 [20]: 0.661 µM | TGI [20]: 6.98 µM | GI50 [21]: 1.28 µM | TGI [21]: 2.6 µM | GI50 [22]: 0.429 µM | TGI [22]: 0.912 µM | GI50 [23]: 0.46 µM | TGI [23]: 1.31 µM | GI50 [24]: 0.819 µM | TGI [24]: 2.71 µM | GI50 [25]: 0.532 µM | TGI [25]: 2.1 µM | GI50 [26]: 0.759 µM | TGI [26]: 2.22 µM | GI50 [27]: 0.753 µM | TGI [27]: 2.27 µM | GI50 [28]: 0.614 µM | TGI [28]: 6.76 µM | GI50 [29]: 1.02 µM | TGI [29]: 3.04 µM | GI50 [30]: 0.919 µM | TGI [30]: 2.81 µM | GI50 [31]: 0.935 µM | TGI [31]: 2.87 µM | GI50 [32]: 0.373 µM | TGI [32]: 0.985 µM | GI50 [33]: 0.699 µM | TGI [33]: 2.39 µM | GI50 [34]: 0.579 µM | TGI [34]: 1.37 µM | GI50 [35]: 0.53 µM | TGI [35]: 1.63 µM | GI50 [36]: 1.45 µM | TGI [36]: 3.04 µM | GI50 [37]: 0.399 µM | TGI [37]: 1.83 µM | GI50 [38]: 0.834 µM | TGI [38]: 3.13 µM | GI50 [39]: 1.39 µM | TGI [39]: 4.05 µM | GI50 [40]: 0.587 µM | TGI [40]: 1.36 µM | GI50 [41]: 0.88 µM | TGI [41]: 2.51 µM | GI50 [42]: 0.924 µM | TGI [42]: 2.72 µM | GI50 [43]: 0.977 µM | TGI [43]: 2.56 µM | GI50 [44]: 1.6 µM | TGI [44]: 3.92 µM | GI50 [45]: 0.53 µM | TGI [45]: 1.21 µM | GI50 [46]: 1.1 µM | TGI [46]: 2.47 µM | GI50 [47]: 1.51 µM | TGI [47]: 2.87 µM | GI50 [48]: 1 µM | TGI [48]: 2.53 µM | GI50 [49]: 1.24 µM | TGI [49]: 2.8 µM | GI50 [50]: 1.95 µM | TGI [50]: 6.85 µM | GI50 [51]: 0.351 µM | TGI [51]: > 23 µM | GI50 [52]: 0.899 µM | TGI [52]: 2.64 µM | GI50 [53]: 1.43 µM | TGI [53]: 3.13 µM | GI50 [54]: 1.09 µM | TGI [54]: 2.47 µM | GI50 [55]: 0.602 µM | TGI [55]: 1.52 µM | GI50 [56]: 0.529 µM | TGI [56]: 1.29 µM | GI50 [57]: 0.755 µM | TGI [57]: 2.23 µM | GI50 [58]: 0.664 µM | TGI [58]: 1.97 µM
